Laboratory results taken from patent US20100261710A1, “HDAC Inhibitors” (ARQULE, INC., priority 2007, published 2010).

Tests used:
HDAC1 = biological target: T1, HDAC1 (Homo sapiens, UniProt Q13547); assay: HDAC-1 immunocapture fluorescent biochemical assay (HeLa lysate); conditions: HDAC1 immunocaptured from HeLa extract
T1 construct: cell extract containing HDAC (HeLa in these experiments); endogenous in cells; host or cells: HeLa cell extract
Protocol: The HDAC-1 assay represents a novel immunocapture assay procedure. […] The HDAC1 is captured on a protein A coated plate using HDAC1 specific antibody, and is then allowed to react with the substrate.
This assay in performed in four general steps. In the first step (FIG. 1A), cell extract containing HDAC (HeLa in these experiments) is incubated with (cell signaling) rabbit polyclonal HDAC1 antibody (rabbit IgG antibody is used for background control) to allow binding of the enzyme to the antibody. In the second step, the complexed mixture is added to the protein A covered plate which captures the antibody. In the third step, after washing away unbound proteins, substrate and inhibitor are added and deacetylation is allowed to occur. […] The plate is then read on either Victor or Perkin Elmer Envision system using Umbilliferone filter set.
• A. HeLa extract complexed with HDAC1 antibody working solution (in DPBS):
Compound working solution (in HDAC buffer):
Compounds diluted in assay buffer at 2× Screening concentration. • D. Activator solution:
Trypsin (10 mg/mL) diluted 1:1600 in assay buffer containing 4 μM TSA.
Complexing of extract with antibody was carried out at room temperature for 60 min with rocking. Binding of complexes onto protein A plate was carried out at room temperature for 60 min in 50 μL. Reaction was carried out in […], in the protein A plate for 60 minutes at 37° C. 40 μL of the reaction was moved into white ½ area plate for activation and reading.
• 1. Set PIERCE Protein A plate to block with 150 μof 5% BSA in TB ST for 60 min at room temperature. • 2. […] Dilute complexes further ([…]) by addition of 3.5 mL of PBS (final total volume of 5 mL). • 4. Wash blocked protein A plate prior to complex addition with TBST. • 5. Add 50 μl of diluted complexes to Protein A plate and incubate for 60 min at room temperature. • 6. Wash plate with TB ST. • 7. Add 25 μl of diluted compounds (in HDAC buffer) to each well and incubate for 10 min at room temperature. • 8. […] Move 40 μl of reaction to a white plate and add 20 μl of activator/developer solution, mix thoroughly. • 10. Read plate.

HDAC5 = HDAC5 (Homo sapiens, UniProt Q9UQL6); assay: HDAC isoform assay, HDAC5
MJ cells = assay: MTS cell viability assay, MJ; assay type: cell-based; conditions: 72 hr, read-out: MJ, IG50, MTS
Protocol: (§1) The MTS cell viability assay was used to determine the potency of proliferation inhibitor with. MTS measures mitochondrial dehydrogenase activity and serves as surrogate readout for the number of viable cells.
(§2) For MTS assay, cells were plated in 96-well plates at 2000 cells per well and incubated in the presence of compounds for 72 hr. MTS was added to each well as instructed by manufacture (Promega) and plates were incubated for 4 h at 37° C. The absorbance of each well was measured at 490 nm using a microplate reader.

HDAC3 = biological target: T2, HDAC3 (Homo sapiens, UniProt O15379); assay: HDAC isoform assay, HDAC3; assay type: biochemical; conditions: substrate KI-177; read-out: HDAC3, IC50, ELISA (KI-177)
T2 construct: purchased BioMol
Protocol: The assay measures the ability of a small molecule to inhibit deacetylation of the substrate. Activator reagent recognizes the substrate only if the lysine has been deacetylated.
This homogeneous assay in performed in the same well without washing steps. The HDAC source, nuclear HeLa extract, is incubated with substrate in the presence of an inhibitor compound. At the end of the reaction time, activator solution, containing Trypsin and TSA, is added to stop the deacetylation reaction, and cleave the amino-coumarin from the deacetylated substrate. The plate is then read on either a Perkin Elmer Victor or Envision system using Umbilliferone filter set. […] The signal is directly proportional to the activity of HDACs and compound inhibition of HDAC is monitored by a decrease in signal.

HCT-116 cells = assay: MTS cell viability assay, HCT-116; assay type: cell-based; conditions: Homo sapiens; HCT-116, 72 hr; read-out: HCT-116, IG50, MTS
Protocol: as §1, §2

HDAC8 = biological target: T3, HDAC8 (Homo sapiens, UniProt Q9BY41); assay: HDAC isoform assay, HDAC8
T3 sequence (Q9BY41 1-377): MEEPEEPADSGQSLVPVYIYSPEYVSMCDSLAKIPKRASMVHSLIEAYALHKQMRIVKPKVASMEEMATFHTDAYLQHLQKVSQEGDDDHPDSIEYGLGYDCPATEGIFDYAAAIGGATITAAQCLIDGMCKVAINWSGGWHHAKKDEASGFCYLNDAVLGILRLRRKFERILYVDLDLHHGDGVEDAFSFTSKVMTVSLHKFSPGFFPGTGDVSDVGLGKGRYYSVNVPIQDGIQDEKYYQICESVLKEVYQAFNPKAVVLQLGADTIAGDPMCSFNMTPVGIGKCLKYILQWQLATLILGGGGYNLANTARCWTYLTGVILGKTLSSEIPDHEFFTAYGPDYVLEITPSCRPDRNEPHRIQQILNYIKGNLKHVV

HDAC9 = biological target: T4, HDAC9 (Homo sapiens, UniProt Q9UKV0); assay: HDAC isoform assay, HDAC9; assay type: biochemical
T4 construct: purchased BioMol

HDAC6 = biological target: T5, HDAC6 (Homo sapiens, UniProt Q9UBN7); assay: HDAC isoform assay, HDAC6
T5 sequence (Q9UBN7 1-1215): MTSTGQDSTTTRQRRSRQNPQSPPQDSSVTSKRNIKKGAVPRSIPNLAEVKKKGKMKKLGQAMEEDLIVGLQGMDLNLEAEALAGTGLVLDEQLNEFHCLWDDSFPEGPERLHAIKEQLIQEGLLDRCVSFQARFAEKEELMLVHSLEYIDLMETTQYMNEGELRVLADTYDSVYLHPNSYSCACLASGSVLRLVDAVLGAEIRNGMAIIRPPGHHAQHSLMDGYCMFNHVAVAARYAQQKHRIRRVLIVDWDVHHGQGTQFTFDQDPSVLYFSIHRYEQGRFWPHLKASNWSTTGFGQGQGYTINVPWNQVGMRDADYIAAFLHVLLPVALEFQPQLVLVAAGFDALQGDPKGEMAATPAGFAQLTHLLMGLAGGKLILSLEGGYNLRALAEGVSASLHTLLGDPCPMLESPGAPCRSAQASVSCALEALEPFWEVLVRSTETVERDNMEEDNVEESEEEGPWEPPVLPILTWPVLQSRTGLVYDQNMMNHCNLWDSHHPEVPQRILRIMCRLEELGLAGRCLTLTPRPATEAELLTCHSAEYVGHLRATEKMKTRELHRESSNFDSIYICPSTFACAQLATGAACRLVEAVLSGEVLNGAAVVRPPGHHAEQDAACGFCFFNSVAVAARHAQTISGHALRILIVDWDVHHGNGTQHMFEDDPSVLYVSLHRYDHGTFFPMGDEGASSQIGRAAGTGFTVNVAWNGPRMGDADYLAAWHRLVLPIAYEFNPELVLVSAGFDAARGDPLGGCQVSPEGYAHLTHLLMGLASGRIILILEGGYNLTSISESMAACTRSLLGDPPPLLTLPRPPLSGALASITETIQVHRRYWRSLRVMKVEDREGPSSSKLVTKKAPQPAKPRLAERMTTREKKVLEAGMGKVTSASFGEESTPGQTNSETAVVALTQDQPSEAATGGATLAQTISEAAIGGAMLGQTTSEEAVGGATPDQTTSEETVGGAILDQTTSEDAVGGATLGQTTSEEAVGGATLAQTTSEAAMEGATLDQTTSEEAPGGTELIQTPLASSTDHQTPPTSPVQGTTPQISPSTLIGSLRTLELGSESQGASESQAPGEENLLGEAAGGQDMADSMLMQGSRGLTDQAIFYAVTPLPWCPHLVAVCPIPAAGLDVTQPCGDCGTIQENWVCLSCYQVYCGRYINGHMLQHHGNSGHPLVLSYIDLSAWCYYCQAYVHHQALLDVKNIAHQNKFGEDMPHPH

HDAC4 = biological target: T6, HDAC4 (Homo sapiens, UniProt P56524); assay: HDAC isoform assay, HDAC4; assay type: biochemical; conditions: substrate KI-177; read-out: HDAC4, IC50, ELISA (KI-177)
T6 construct: purchased BioMol

Hut78 cells = assay: MTS cell viability assay, Hut78; assay type: cell-based; conditions: Homo sapiens; Hut78, 72 hr; read-out: Hut78, IG50, MTS
Protocol: as §1, §2

HDAC2 = biological target: T7, HDAC2 (Homo sapiens, UniProt Q92769); assay: HDAC isoform assay, HDAC2; assay type: biochemical; conditions: substrate KI-177; read-out: HDAC2, IC50, ELISA (KI-177)
T7 construct: purchased BioMol

HH cells = assay: MTS cell viability assay, HH; assay type: cell-based; conditions: Homo sapiens, 72 hr, read-out: HH, IG50, MTS
Protocol: The MTS cell viability assay was used to determine the potency of proliferation inhibitor with. MTS measures mitochondrial dehydrogenase activity and serves as surrogate readout for the number of viable cells. The protocol described below is based upon the “CellTiter 96 Aqueous Non-Radioactive Cell Proliferation Assay” sold by Promega (Technical Bulletin No. 169).
as §2

T4 sequence (Q9UKV0 whole entry, canonical isoform): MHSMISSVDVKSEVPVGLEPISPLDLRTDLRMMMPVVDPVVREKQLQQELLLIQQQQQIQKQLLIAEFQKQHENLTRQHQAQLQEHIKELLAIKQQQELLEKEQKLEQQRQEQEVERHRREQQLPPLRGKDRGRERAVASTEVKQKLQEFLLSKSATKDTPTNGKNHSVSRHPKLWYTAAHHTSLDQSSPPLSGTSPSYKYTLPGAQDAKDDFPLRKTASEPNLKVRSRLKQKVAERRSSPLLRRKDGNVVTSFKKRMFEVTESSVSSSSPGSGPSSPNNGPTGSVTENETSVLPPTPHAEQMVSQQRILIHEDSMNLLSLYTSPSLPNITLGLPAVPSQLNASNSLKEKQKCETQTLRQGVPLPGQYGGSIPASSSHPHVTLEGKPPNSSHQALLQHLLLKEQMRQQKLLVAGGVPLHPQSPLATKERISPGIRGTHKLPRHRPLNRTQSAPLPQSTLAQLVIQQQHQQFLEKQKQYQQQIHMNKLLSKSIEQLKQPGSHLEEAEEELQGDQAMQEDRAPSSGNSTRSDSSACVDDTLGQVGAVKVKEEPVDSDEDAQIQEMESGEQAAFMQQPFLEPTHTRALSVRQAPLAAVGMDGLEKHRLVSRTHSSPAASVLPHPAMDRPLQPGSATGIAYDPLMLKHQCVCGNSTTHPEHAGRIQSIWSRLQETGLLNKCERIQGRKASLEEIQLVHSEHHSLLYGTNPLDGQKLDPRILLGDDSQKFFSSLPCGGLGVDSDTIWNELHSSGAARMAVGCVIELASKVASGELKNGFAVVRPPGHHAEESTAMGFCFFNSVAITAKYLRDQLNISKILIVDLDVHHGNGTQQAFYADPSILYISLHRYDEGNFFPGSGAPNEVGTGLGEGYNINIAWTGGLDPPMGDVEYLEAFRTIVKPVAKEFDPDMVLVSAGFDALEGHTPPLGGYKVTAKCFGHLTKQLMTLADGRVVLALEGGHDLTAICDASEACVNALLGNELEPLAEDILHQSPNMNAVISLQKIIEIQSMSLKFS
T1 sequence (Q13547 whole entry): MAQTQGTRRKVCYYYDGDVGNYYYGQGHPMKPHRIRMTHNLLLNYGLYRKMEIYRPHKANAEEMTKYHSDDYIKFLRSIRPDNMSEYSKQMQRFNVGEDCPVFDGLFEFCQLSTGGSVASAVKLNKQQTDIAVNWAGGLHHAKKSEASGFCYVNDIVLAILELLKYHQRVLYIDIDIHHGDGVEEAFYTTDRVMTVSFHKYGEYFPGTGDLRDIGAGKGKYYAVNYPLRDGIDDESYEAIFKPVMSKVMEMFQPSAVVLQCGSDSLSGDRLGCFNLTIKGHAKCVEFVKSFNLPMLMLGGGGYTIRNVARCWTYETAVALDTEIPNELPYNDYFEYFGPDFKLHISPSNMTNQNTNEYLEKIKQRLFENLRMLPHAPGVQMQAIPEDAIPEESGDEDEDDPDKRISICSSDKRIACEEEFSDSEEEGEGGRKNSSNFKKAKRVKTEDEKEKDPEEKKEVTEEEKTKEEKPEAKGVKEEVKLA
T7 sequence (Q92769 whole entry, canonical isoform): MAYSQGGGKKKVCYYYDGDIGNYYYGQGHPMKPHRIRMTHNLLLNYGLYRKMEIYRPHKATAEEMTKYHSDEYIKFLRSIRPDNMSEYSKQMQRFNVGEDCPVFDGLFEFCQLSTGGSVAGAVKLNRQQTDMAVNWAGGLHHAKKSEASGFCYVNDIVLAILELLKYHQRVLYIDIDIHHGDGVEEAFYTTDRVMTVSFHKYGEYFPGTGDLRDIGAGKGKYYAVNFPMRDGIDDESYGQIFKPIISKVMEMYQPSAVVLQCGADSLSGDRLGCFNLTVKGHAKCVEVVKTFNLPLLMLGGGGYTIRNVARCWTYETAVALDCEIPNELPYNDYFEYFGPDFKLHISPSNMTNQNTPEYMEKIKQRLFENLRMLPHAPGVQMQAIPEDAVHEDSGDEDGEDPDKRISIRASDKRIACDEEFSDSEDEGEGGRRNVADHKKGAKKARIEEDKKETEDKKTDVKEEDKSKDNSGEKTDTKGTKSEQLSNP
T6 sequence (P56524 whole entry, canonical isoform): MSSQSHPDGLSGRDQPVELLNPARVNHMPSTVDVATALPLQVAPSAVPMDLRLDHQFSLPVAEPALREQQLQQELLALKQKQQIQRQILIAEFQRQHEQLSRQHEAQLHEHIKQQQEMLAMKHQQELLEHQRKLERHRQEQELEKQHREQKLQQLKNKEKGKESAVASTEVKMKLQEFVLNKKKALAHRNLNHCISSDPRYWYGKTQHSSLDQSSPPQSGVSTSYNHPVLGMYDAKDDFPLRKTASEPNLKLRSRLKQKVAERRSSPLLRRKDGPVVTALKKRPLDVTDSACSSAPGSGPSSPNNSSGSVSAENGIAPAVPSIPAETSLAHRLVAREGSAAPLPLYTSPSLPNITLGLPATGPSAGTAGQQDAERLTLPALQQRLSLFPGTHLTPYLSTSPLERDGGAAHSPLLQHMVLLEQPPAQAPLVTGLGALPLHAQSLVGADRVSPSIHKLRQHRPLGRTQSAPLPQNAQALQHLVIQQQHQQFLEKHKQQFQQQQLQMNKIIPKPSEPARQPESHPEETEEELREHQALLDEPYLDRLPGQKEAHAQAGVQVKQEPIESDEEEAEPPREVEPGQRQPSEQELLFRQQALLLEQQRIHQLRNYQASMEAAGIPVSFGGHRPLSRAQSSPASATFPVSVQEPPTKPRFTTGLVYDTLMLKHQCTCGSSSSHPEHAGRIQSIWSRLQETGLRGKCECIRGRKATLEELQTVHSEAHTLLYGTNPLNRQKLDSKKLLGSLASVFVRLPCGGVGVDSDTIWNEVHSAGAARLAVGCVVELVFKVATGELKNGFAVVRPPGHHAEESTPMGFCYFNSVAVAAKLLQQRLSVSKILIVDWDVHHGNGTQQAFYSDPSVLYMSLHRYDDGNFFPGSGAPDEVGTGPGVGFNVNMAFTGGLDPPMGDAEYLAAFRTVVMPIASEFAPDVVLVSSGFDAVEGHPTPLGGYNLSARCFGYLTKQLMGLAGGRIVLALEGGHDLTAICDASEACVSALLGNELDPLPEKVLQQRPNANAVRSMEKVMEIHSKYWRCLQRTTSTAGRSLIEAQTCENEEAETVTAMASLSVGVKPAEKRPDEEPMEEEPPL
Sequence of HDAC5 (Q9UQL6 whole entry, canonical isoform): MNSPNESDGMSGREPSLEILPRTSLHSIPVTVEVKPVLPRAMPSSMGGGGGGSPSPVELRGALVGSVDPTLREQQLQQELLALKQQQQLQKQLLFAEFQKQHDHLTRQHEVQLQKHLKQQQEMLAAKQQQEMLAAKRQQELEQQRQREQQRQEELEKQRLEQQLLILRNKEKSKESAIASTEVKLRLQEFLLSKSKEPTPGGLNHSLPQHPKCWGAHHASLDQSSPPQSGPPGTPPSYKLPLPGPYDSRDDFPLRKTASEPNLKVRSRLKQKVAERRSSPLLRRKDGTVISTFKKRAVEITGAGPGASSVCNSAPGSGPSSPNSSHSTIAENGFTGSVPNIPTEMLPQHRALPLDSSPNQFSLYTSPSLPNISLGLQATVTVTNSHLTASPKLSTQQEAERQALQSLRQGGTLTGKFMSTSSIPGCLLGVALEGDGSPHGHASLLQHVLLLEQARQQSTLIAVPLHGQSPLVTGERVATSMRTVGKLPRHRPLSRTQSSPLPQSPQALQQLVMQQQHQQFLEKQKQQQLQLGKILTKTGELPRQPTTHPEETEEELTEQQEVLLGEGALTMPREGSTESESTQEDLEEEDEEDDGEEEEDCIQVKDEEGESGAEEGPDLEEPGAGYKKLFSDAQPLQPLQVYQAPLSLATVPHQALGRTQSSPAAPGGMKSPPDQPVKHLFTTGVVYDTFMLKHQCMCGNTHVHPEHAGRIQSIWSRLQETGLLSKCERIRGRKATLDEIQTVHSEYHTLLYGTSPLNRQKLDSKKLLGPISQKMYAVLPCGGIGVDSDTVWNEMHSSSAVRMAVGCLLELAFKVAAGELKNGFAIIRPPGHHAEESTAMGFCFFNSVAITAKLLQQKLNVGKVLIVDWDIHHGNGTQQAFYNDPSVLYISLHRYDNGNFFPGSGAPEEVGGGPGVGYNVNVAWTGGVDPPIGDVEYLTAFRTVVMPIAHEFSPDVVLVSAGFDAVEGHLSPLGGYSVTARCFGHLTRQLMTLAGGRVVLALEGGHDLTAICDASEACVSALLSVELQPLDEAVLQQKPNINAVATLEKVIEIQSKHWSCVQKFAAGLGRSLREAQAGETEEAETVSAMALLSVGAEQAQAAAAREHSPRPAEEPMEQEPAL
T2 sequence (O15379 whole entry, canonical isoform): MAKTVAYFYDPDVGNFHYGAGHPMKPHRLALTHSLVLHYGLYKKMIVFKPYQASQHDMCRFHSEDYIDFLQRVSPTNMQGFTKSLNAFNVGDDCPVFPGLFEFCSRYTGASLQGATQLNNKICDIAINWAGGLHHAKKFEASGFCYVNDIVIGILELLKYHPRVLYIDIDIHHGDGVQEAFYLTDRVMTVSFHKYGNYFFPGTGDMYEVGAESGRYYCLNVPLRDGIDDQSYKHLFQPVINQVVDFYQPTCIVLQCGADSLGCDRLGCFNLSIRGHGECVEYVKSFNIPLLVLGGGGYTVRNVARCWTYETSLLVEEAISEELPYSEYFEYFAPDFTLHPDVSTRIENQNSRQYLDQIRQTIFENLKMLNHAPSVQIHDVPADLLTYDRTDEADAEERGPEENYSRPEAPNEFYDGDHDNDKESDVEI
T2 sequence (O75376 395-489 partner limits assumed): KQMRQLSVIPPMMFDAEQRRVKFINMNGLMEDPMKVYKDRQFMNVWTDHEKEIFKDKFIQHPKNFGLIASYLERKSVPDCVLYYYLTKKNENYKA

Work on O=C(CCC1CCN(C(=O)c2cn3c4c(cccc24)CCC3)CC1)NO [compound 18, 3-[1-(5,6-dihydro-4H-pyrrolo[3,2,1-ij]quinolin-1-ylcarbonyl)piperidin-4-yl]-N-hydroxypropanamide] yielded an IC50 (HDAC1) of 0.0357 µM, an IC50 (HDAC5) of 0.0915 µM and an IC50 (MJ cells) of 0.39 µM. For the same molecule, the IC50 (HDAC3) was 0.0298 µM, the IC50 (HCT-116 cells) was 1.14 µM and the IC50 (HDAC8) was 4.97 µM. It also gave an IC50 (HDAC9) of 0.535 µM, an IC50 (HDAC6) of 0.144 µM and an IC50 (HDAC4) of 0.0691 µM. It also gave an IC50 (Hut78 cells) of 0.987 µM, an IC50 (HDAC2) of 10 µM and an IC50 (HH cells) of 0.186 µM. The melting point was 110 to 113 °C.
